This experiment concerns the target enzyme PDE-5 (Homo sapiens, UniProt O76074). The experiment is described as follows: Phosphodiesterase 5 (PDE-5) inhibition activity in in vitro tests. The experiment is classed as biochemical. To be noted: read-out: CI5C. The source says:
The following data illustrate the inhibiting activity of the compounds of the present invention on the enzyme PDE-5.
As to `CCCc1nn(C)c2c(=O)[nH]c(-c3cc(S(=O)(=O)N4CCCN(C(C)=O)CC4)ccc3OCC)nc12` [Compound 2, 5-(5-(4-acetyl-1,4-diazepan-1-ylsulfonyl)-2-ethoxyphenyl)-1-methyl-3-propyl-1H-pyrazolo[4,3-d]pyrimidin-7(6H)-one], the IC50 was determined as 6.4 nM.
For `CCCc1nn(C)c2c(=O)[nH]c(-c3cc(S(=O)(=O)N4CCCN(CCCO)CC4)ccc3OCC)nc12` [Compound 4], the IC50 stood at 1.8 nM.
On to `CCCc1nn(C)c2c(=O)[nH]c(-c3cc(S(=O)(=O)N4CCCNCC4)ccc3OCC)nc12` [Compound 1, 5-(5-(1,4-diazepan-1-ylsulfonyl)-2-ethoxiphenyl)-1-methyl-3-propyl-1H-pyrazolo[4,3-d]pyrimidin-7(6H)-one], for which the IC50 amounted to 4.2 nM.
Take `CCCc1nn(C)c2c(=O)[nH]c(-c3cc(S(=O)(=O)N4CCCN(C)CC4)cnc3OCC)nc12` [Compound 6, 5-(2-ethoxy-5-(4-methyl-1,4-diazepan-1-ylsulfonyl)pyridin-3-yl)-1-methyl-3-propyl-1H-pyrazolo[4,3-d] pyrimidin-7(6H)-one]: the IC50 was found to be 2.2 nM.
In the case of `CCCc1nn(C)c2c(=O)[nH]c(-c3cc(S(=O)(=O)N4CCCN(CCC(=O)O)CC4)ccc3OCC)nc12` [Compound 7], the IC50 amounted to 1.2 nM.
On to `CCCc1nn(C)c2c(=O)[nH]c(-c3cc(S(=O)(=O)N4CCCN(C(=O)OC(C)(C)C)CC4)ccc3OCC)nc12` [Compound 5, tert-butyl 4-(4-ethoxy-3-(1-methyl-7-oxo-3-propyl-6,7-dihydro-1H-pyrazolo[4,3-d]pyrimidin-5-yl)phenylsulfonyl)-1,4-diazepane-1-carboxylate], for which the IC50 came to 3.5 nM.
For `CCCc1nn(C)c2c(=O)[nH]c(-c3cc(S(=O)(=O)N4CCCN(C)CC4)ccc3OCC)nc12` [Compound 3, 5-(2-ethoxy-5-(4-methyl-1,4-diazepan-1-ylsulfonyl)phenyl)-1-methyl-3-propyl-1H-pyrazolo[4,3-d]pyrimidin-7(6H)-one] the value was 2.8 nM.
